Assay results as given in patent publication US4359468A, “Antiallergic N-[4-(indolyl)-piperidino-alkyl]-benzimidazolones” (Boehringer Ingelheim Ltd., priority 1981, dated 1982).

Legend:
mast cells = assay: Inhibition of Peritoneal Mast Cell Degranulation (MCD) in Rats Passively Sensitized with OA Antiserum or Induced by Compound 48/80; format: in vivo, rat; details: male CD rats, OA antiserum or Compound 48/80, i.v., i.p. or p.o., route not given
Experimental: Inhibition of Peritoneal Mast Cell Degranulation (MCD) in Rats Passively Sensitized with OA Antiserum or Induced by Compound 48/80
This test was adapted from that described by Mota, I. and Osler, A. G. "Mast Cell Degranulation,"
Male CD rats (150-160 gm) were divided into 5 groups as follows:
Group I: Nonspecific MCD control (3 rats)
Group II: Positive MCD control (5 rats)
Groups III, IV, V: Positive MCD following test compound (5 rats each)
Group I was injected intraperitoneally with 3 ml of normal rat serum. Groups II through V were intraperitoneally administered 3 ml of an antiserum predetermined to produce a 60-80 percent greater degranulation than normal rat serum. Eighteen to 24 hours later, test compound was administered (i.e., i.v. immediately, i.p. 5 minutes, or p.o. 20 minutes) before i.p. antigen challenge with 0.5 mg/kg of 2×crystalline ovalbumin in a concentration of 0.005 percent saline. Fifteen minutes after challenge, the rats were killed by asphyxiation with CO2. […]
Microscopic slides of the mesentery were prepared and analyzed by a modification of the method by Fugner, A. "An Improved Method for the Study of Reaginmediated Mast Cell Degranulation in Rats," Experientia, 29: 708, 1973, […]
The results were calculated and expressed as percent of inhibition of degranulation as follows: [formula]

[1] = tested on: histamine-induced blueing in rat skin; assay: In Vivo Inhibition of Histamine-Induced Blueing in Rat Skin; details: po, male CD rats, 50 percent reduction in blue-spotted area, p.o., 3 μg histamine intradermal, read-out: ED50 Antihist.
Experimental: In Vivo Inhibition of Histamine-Induced Blueing in Rat Skin
Male CD rats (150-160 gm) were divided into two groups. The hair was removed from an area of the back with an electric clipper. An untreated control group received 10 ml/kg, p.o. of normal saline in 1 percent acacia. Experimental groups received test compound suspended in 1 percent acacia at a volume of 10 ml/kg, p.o. Two percent Evans Blue dye in normal saline in a volume of 0.5 ml was administered intravenously to all animals. Twenty minutes following administration of the test compound or vehicle, 3 μg of histamine diphosphate in 0.1 ml of normal saline was injected intradermally in two sites of the shaved area on the backs of the rats. Fifteen minutes following histamine injection, all rats were killed by CO2 asphyxiation.
An incision was made along the spine and the skin cleanly separated. The dorsal skin was reflected and the diameters of the blue-spotted wheals were measured. The area in square millimeters was determined for each resulting blue spot and the mean area for the control and test groups were calculated. The mean area for the control group was considered as a 100 percent response. Test group results were expressed as a percentage change from control. An ED50 (i.e., defined as a 50 percent reduction in blue-spotted area) was determined by linear regression analysis.

[2] = tested on: passive cutaneous anaphylaxis skin reaction in rats (anti-OA reaginic serum, ovalbumin challenge); assay: Rat Passive Cutaneous Anaphylaxis (PCA) Test; format: in vivo; details: male CD rats, 50 percent reduction in area, i.v. or oral, route not given
Experimental: Rat Passive Cutaneous Anaphylaxis (PCA) Test
The test used was essentially that described by El-Azab, J. and Stewart, P. B., "Pharmacological Profile of a New Anti-Allergic Compound PRD-92-EA." Int. Archs. Allergy Appl. Immunol. 55: 350-361, 1977;
A dilution of anti-OA reaginic serum was used to give reproducible skin reactions with diameters between 10-15 mm in unsensitized rats. This anti-serum dilution was injected in a volume of 0.1 ml intradermally on each side of the shaved backs of male CD rats (150-160 gm) before antigen challenge. Test compounds which were evaluated by the intravenous (i.v.) route were dissolved in water, and mixed with 0.5 ml of a solution containing 5 mg ovalbumin and 2 percent Evans Blue and administered at a volume of 1 ml/kg. […]
Thirty minutes after antigenic challenge, i.e. for either intravenous or oral administration, the rats were killed by CO2 asphyxiation. A midline incision was made along the spine and the skin was reflected and the diameter of the blued areas were measured in millimeters. The mean area in square millimeters was determined for each spot and the mean circular area of that test group was calculated. The mean area in square millimeters of an untreated control group was considered as a 100 percent response, and the results of the test compound groups were expressed as a percent change from the control values. […]

Row | SMILES | ED50 (mast cells; Rattus norvegicus, Mast cell) | ED50 [1] | ED50 [2] | ED50 MCD (mast cells)
1 | O=c1[nH]c2ccccc2n1CCCN1CCC(c2c[nH]c3ccccc23)CC1 [Example 4, N-{3-[4-(3-indolyl)-piperidino]-propyl}-benzimidazolone] | 3 to 6.4 mg/kg | 8.7 mg/kg | 1.6 mg/kg | –
2 | O=c1[nH]c2ccccc2n1CCCN1CCN(C(c2ccccc2)c2ccccc2)CC1 [Oxatomide] | – | 8.1 mg/kg | 8.3 mg/kg | neg.
